Reference: US6905698B1, “Particulate carrier for biocide formulations” (Ineos Silicas Limited, priority 1998, dated 2005)
≈ marks a conversion by molar mass, not a printed value. Where two headings read alike, the source gives them in different places.

Legend:
[1] = cited from earlier work
[2] = Thermal ageing at 60° C.: biocide remaining; conditions: Thermal Ageing 60° C.
Method: (§1) The loaded biocides, together with the stock solutions, were spread on petri dishes and either placed in an incubator at 60° C. or exposed to U.V. irradiation in a Microscal unit (Miscoscal Limited, London) fitted with a 500 W high pressure mercury/tungsten lamp (wavelength>300 nm) operating at temperature 50° C. and a relative humidity in the region of 50%. […] Samples were withdrawn from the petri dishes undergoing thermal treatment and exposure to U.V. irradiation on a regular basis over a period in the region of 50 days. The amount of biocide remaining in each withdrawn sample was determined at the time of withdrawal using second derivative U.V.-visible Spectroscopy. The amount of biocide remaining in the stock solutions was determined by Gas Chromatography Mass Spectrometry. Relative peak heights corresponding to the residual parts of OIT, CIT and MIT were used to determine the concentrations of biocide in each sample.

[3] = U.V. irradiation: biocide remaining
Method: as §1

[4] = system: standard mixed inoculum of BS 3900: Part G6: 1989 with Alternaria altarnata; experiment: Prolonged protection on paint panels (BS 3900: Part G6: 1989); assay type: cell-based; conditions: weathered panels
[5] = system: Cladosporium cladosporioides; experiment: Surface growth on painted discs after a further 14 days incubation; assay type: cell-based; conditions: biocide 300 ppm; for Zone of Inhibition After Leaching (surface of paint discs examined for growth): after water leaching
Method: To further distinguish performance the inoculated petri dishes containing the painted discs were incubated for a further 14 days so as to examine the extent of encroachment of the fungi into the surface of the paint film. The dishes were removed from the incubator and the surface of the paint discs examined for growth.

[6] = system: standard mixed inoculum of BS 3900: Part G6: 1989 with Alternaria altarnata; experiment: Prolonged protection on paint panels (BS 3900: Part G6: 1989); assay type: cell-based; conditions: weathered panels; for Fungal growth rating % Cover D28: Day 28; for Fungal growth rating % Cover D84: Day 84
Method: Candidate carrier materials dispersed in water borne acrylic emulsion paint were subjected to the procedure of BS 3900: Part G6: 1989 to assess their long term fungicidal efficiency when compared with the biocide added directly to the paint.
Masterboard panels (150 mm×150 mm) were brush coated on one side with the test paints (2 coats, 24 hours between coats) and cured at 60° C. for two days. The coated panels were then weathered in a QUV apparatus (The Q-Panel Co. Bolton, UK) under the following conditions: 125±5 hours exposure to UVA (340 nm) at 40° C. with 1 hour water spray at approximately 24 hour intervals (5 in total). During the water spray the temperature cools to about 20° C.
After weathering the panels were cut into two equal samples and subjected to the procedure described in BS 3900: Part G6:1989. The control paint was the test paint without biocide. Alternaria altarnata was included in the standard mixed inoculum of BS 3900: Part G6: 1989.
Visual examination of the panels was carried out after 28, 36 and 84 days. In accordance with the standard procedure, the percentage cover of each panel by fungal growth was assessed.
Following on from the observations of Example 4, the two carriers SD 2209 and SD 1866 loaded, at 30% by weight, with OIT and DCOIT were incorporated into the paint formulation specified in Example 4 and subjected to BS 3900: Part G6 as described in procedure (x) hereinbefore to assess their long term film fungicidal efficiency in comparison with OIT and DCOIT added directly to the paint.
Masterboard panels (150 mm×150 mm) were brush coated on one side with the test paints (2 coats, 24 hours between coats) and cured at 60° C. for two days. The coated panels were then weathered in a QUV apparatus as described hereinbefore in procedure (x). After weathering the panels were cut into two equal samples and subjected to the procedure described in BS 3900: Part G6: 1989. The panels were exposed for 28, 36, and 84 days, in accordance with the standard procedure, and the percentage cover of each panel by fungal growth was assessed at these stages.

[7] = system: Cladosporium cladosporioides; experiment: Water leaching of paint discs: zone of inhibition before and after 24 hours leach; assay type: cell-based; conditions: acrylic high build paint; for Zone of Inhibition After Leaching: 24 hours water leach
Method: The method allows an assessment of the level of protection afforded by incorporating a biocide into a paint formulation. Filter discs (Whatman International Limited, Maidstone, Kent), Type 54, hardened 42.5 mm diameter were brush painted on one side of the disc with the test paints (24 hours between coats, 3 replicates per paint) to give an average loading of 0.05 g dried paint. The painted discs were cured at 60° C. for 2 days. One set of discs is then washed with a large volume of distilled water (20 liters) under controlled flow for 24 hours at ambient temperatures.
A freeze dried ampoule of Cladosporium cladosporioides (strain no. FS33 ex. Paint Research Association, Teddington, UK) was revived on potato dextrose agar (Oxoid Limited, Basingstoke, UK). A spore innoculum was prepared from the resultant sporing culture (5-7 days growth at 25° C.) by adding 5 ml of sterile distilled water to the surface of the culture on the agar and gently rubbing the surface with a sterile loop to dislodge the spores' mycelium. The resultant suspension was filtered through sterile wool and the filtrate used to seed molten (45° C.) potato dextrose agar prior to pouring into sterile Petri dishes.
Each painted disc was placed on the surface of the seeded agar plate, and the plates placed in a fridge (6-8° C.) for 24 hours to allow diffusion of the biocide. After this period, they were transferred to an incubator at 25° C. for five days. The diameter of the disc, plus any zone of inhibition (no fungal growth) around the discs was measured. An average of the three replicates is taken as a data point.
The biocidal efficiency of the two carriers (SD 2209 and SD 1866) loaded, at 30% by weight, with OIT and DCOIT in the acrylic high build formulation was compared before, and after, a 24 hours leach using procedure (ix) described hereinbefore. The paints containing the biocide carrying particles and those where the biocide was incorporated as the free biocide where used in the example.

[8] = 50.98 %
Method: as §1

Aureobasidium pullulans = experiment: Minimum Inhibition Concentration (MIC); assay type: cell-based
Method: The retention factor, R, referred to above is determined from the equation R=A/P, where A represents the percentage active ingredient by weight remaining in the pore system after contacting with water according to the conditions defined herein and P represents the potency (Minimum Inhibition Concentration in mg of active ingredient per liter) of the biocide determined with respect to the reference microorganism Aureobasidium pullulans using the procedure defined herein.
The usefulness of the inorganic carrier particle will depend on the particular biocide being used, its effectiveness at various activity levels and the quantity of biocide (active ingredient) adsorbed and retained in the pore system. […]
The minimum inhibition concentration (MIC) is a measure of the potency of a biocide and comprises the minimum concentration (ppm) of a biocide active or formulation (normally quoted in terms of the active ingredient) determined experimentally in vitro to prevent the growth of a pure culture of a reference microorganism. […]
A standardised culture of the microbe under lest is prepared. […] The concentration at which no growth is detected is the minimum inhibition concentration (MIC) for that particlar biocide and reference organism. […]

[9] = 50.98 %; remark: listed apart in the source
Method: as §1

SMILES	water solubility relative to OIT, in words [1]	amount of original biocide remaining (MIT, CIT, MIT/CIT) ([2]; 0 days)	amount of original biocide remaining (MIT, CIT, MIT/CIT) ([2]; 7 days)	amount of original biocide remaining (MIT, CIT, MIT/CIT) ([2]; 12 days)	amount of original biocide remaining (MIT, CIT, MIT/CIT) ([2]; 18 days)	amount of original biocide remaining (MIT, CIT, MIT/CIT) ([3]; 0 days)	amount of original biocide remaining (MIT, CIT, MIT/CIT) ([3]; 7 days)	amount of original biocide remaining (MIT, CIT, MIT/CIT) ([3]; 25 days)	amount of original biocide remaining (MIT, CIT, MIT/CIT) ([3]; 32 days)	amount of original biocide remaining (MIT, CIT, MIT/CIT) ([3]; 39 days)	Fungal growth rating % Cover D56 ([4]; biocide 300 ppm)	Fungal growth rating % Cover D56 ([4]; biocide 1,200 ppm)	Zone of Inhibition Before Leaching (surface of paint discs examined for growth) [5]	Zone of Inhibition After Leaching (surface of paint discs examined for growth) [5]	Fungal growth rating % Cover D28 ([6]; biocide 300 ppm)	Fungal growth rating % Cover D84 ([6]; biocide 300 ppm)	Fungal growth rating % Cover D28 ([6]; biocide 1,200 ppm)	Fungal growth rating % Cover D84 ([6]; biocide 1,200 ppm)	Zone of Inhibition Before Leaching ([7]; biocide 300 ppm)	Zone of Inhibition After Leaching ([7]; biocide 300 ppm)	further results
Cn1sc(Cl)cc1=O [CIT, 5-Chloro-2-Methyl-4-isothiazolin-3-one]	more water soluble than OIT	100	80	40	30	100	0	0	0	0	–	–	–	–	–	–	–	–	–	–	amount of original biocide remaining (MIT, CIT, MIT/CIT) ([2]; 26 days): 0
CCCCCCCCn1sc(Cl)c(Cl)c1=O [DCOIT, 4,5-Dichloro-2-Octyl-4-Isothiazolin-3-one]	–	–	–	–	–	–	–	–	–	–	85 % cover	55 % cover	None	Growth	23 % cover	85 % cover	8 % cover	68 % cover	22 mm	OVERGROWTH	Fungal growth rating % Cover D56 ([4]; biocide 4,000 ppm): 0 % cover; Fungal growth rating % Cover D28 ([6]; biocide 4,000 ppm): 0 % cover; Fungal growth rating % Cover D84 ([6]; biocide 4,000 ppm): 5 % cover; Zone of Inhibition Before Leaching ([7]; biocide 1,200 ppm): 25 mm; Zone of Inhibition After Leaching ([7]; biocide 1,200 ppm): 1 mm; Zone of Inhibition Before Leaching ([7]; biocide 4,000 ppm): 38 mm; Zone of Inhibition After Leaching ([7]; biocide 4,000 ppm): 2 mm
Cn1sccc1=O [MIT, 2-Methyl-4-isothiazolin-3-one]	more water soluble than OIT	100	95	90	80	100	78	69	62	50	–	–	–	–	–	–	–	–	–	–	amount of original biocide remaining (MIT, CIT, MIT/CIT) ([2]; 40 days): 50; amount of original biocide remaining (MIT, CIT, MIT/CIT) ([3]; 55 days): 24
CCCCCCCCn1sccc1=O [OIT, 2-Octyl-4-Isothiazolin-3-one]	–	–	–	–	–	–	–	–	–	–	85 % cover	35 % cover	None	Growth	35 % cover	85 % cover	3 % cover	35 % cover	32 mm	OVERGROWTH	Fungal growth rating % Cover D56 ([4]; biocide 1,400 ppm): 0 % cover; amount of original biocide remaining (OIT) ([8]; 0 h): 100; amount of original biocide remaining (OIT) ([8]; 336 h): 17; amount of original biocide remaining (OIT) ([8]; 1008 h): 1; MIC (Aureobasidium pullulans; Aureobasidium pullulans, reference microorganism Aureobasidium pollulens): 36 µg/mL (≈ 169 µM); Minimum Inhibition Concentration (MIC) (Aureobasidium pullulans; reference microorganism Aureobasidium pullulans): 36 mg of active ingredient per liter; Fungal growth rating % Cover D28 ([6]; biocide 1,400 ppm): 0 % cover; Fungal growth rating % Cover D84 ([6]; biocide 1,400 ppm): 5 % cover; Zone of Inhibition Before Leaching ([7]; biocide 1,200 ppm): >42 mm; Zone of Inhibition After Leaching ([7]; biocide 1,200 ppm): 1 mm; Zone of Inhibition Before Leaching ([7]; biocide 4,000 ppm): >42 mm; Zone of Inhibition After Leaching ([7]; biocide 4,000 ppm): 1 mm; amount of original biocide remaining (OIT) ([9]; 0 h): 100; amount of original biocide remaining (OIT) ([9]; 288 h): 78; amount of original biocide remaining (OIT) ([9]; 432 h): 65; amount of original biocide remaining (OIT) ([9]; 960 h): 50
